In ChEMBL document CHEMBL1133406, “Potent antagonists of gonadotropin releasing hormone receptors derived from quinolone-6-carboxamides” (Bioorg Med Chem Lett, 2000):

Legend:
[1] = biological target: T1, Gonadotropin-releasing hormone receptor (Homo sapiens, UniProt P30968); assay: In vitro inhibitory activity against […] CHO cells stably expressing human gonadotropin-releasing hormone receptor; format: cell-based
T1 sequence (P30968 whole entry): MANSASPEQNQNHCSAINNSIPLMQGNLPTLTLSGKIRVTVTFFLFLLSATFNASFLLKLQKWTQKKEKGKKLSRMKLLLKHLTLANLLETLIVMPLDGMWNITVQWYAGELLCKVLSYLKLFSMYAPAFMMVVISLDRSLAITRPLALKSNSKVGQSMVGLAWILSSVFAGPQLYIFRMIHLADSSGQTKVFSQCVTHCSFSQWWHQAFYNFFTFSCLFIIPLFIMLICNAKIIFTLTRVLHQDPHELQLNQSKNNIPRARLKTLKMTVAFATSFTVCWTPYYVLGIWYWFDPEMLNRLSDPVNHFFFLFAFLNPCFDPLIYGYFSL

[2] = biological target: T1, Gonadotropin-releasing hormone receptor; assay: In vitro inhibition of GnRH-stimulated phosphatidyl inositol hydrolysis in CHO cells stably expressing gonadotropin-releasing hormone receptor.; format: functional, cell-based
[3] = biological target: T2, Gonadotropin-releasing hormone receptor (Rattus norvegicus, UniProt P30969); assay: In vitro inhibition of GnRH stimulated release of luteinizing hormone from the rat primary pituitary cells.; format: functional, cell-based, Pituitary gland cell
T2 sequence (P30969 whole entry): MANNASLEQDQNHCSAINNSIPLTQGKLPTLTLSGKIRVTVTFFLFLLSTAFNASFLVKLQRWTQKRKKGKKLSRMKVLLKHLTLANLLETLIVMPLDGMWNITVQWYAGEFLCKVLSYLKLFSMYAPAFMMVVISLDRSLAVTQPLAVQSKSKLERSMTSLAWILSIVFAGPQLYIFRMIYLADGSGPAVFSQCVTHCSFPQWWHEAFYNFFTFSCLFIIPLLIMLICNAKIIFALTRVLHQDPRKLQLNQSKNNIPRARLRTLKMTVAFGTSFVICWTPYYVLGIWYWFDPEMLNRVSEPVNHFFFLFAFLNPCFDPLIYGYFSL

SMILES | IC50 [1] [nM] | IC50 [2] [nM] | IC50 [3] [nM]
Cc1cc(C)cc(-c2c(O)nc3cc(Cl)c(C(=O)Nc4cc(C)on4)cc3c2OCCC2CCCCN2)c1 (stereo unspecified) | 2.3 | 77.5 | 513
Cc1cc(C)cc(-c2c(O)nc3cc(Cl)c(C(=O)Nc4cc(C)no4)cc3c2OCCC2CCCCN2)c1 (stereo unspecified) | 23 |  | > 1280
COc1nccc(NC(=O)c2cc3c(OCCC4CCCCN4)c(-c4cc(C)cc(C)c4)c(O)nc3cc2Cl)n1 (stereo unspecified) | 9 | 133 | 
Cc1cc(C)cc(-c2c(O)nc3cc(Cl)c(C(=O)Nc4ccc(N(C)C)cc4)cc3c2OCCC2CCCCN2)c1 (stereo unspecified) | 10.9 | 360 | 
CCn1nccc1NC(=O)c1cc2c(OCCC3CCCCN3)c(-c3cc(C)cc(C)c3)c(O)nc2cc1Cl (stereo unspecified) | 860 | 977 | 
Cc1cc(C)cc(-c2c(O)nc3cc(Cl)c(C(=O)Nc4ccncc4)cc3c2OCCC2CCCCN2)c1 (stereo unspecified) | 3.8 | 10.6 | 1090
Cc1cc(C)cc(-c2c(O)nc3cc(Cl)c(C(=O)Nc4ccncn4)cc3c2OCCC2CCCCN2)c1 (stereo unspecified) | 3.2 | 8.3 | 240
CCC(C)N(C(=O)c1cc2c(OCCC3CCCCN3)c(-c3cc(C)cc(C)c3)c(O)nc2cc1Cl)C(C)CC (stereo unspecified) |  |  | > 1280
Cc1cc(C)cc(-c2c(O)nc3cc(Cl)c(C(=O)Nc4cc(C)ncn4)cc3c2OCCC2CCCCN2)c1 (stereo unspecified) | 2.8 | 44 | 167
Cc1cc(C)cc(-c2c(O)nc3cc(Cl)c(C(=O)Nc4nncs4)cc3c2OCCC2CCCCN2)c1 (stereo unspecified) | 32 | 22 | 
Cc1cc(C)cc(-c2c(O)nc3cc(Cl)c(C(=O)Nc4nnc(C)s4)cc3c2OCCC2CCCCN2)c1 (stereo unspecified) | 28 |  | > 1280
Cc1cc(C)cc(-c2c(O)nc3cc(Cl)c(C(=O)Nc4cnsn4)cc3c2OCCC2CCCCN2)c1 (stereo unspecified) | 2 | 6.4 | 292

Other lines, results leading:

IC50 [1] [nM] | IC50 [2] [nM] | IC50 [3] [nM] | SMILES
40 | 486 |  | Cc1cc(C)cc(-c2c(O)nc3cc(Cl)c(C(=O)Nc4cc(C)nc(C)n4)cc3c2OCCC2CCCCN2)c1 (stereo unspecified)
1.4 | 14.5 | 79.2 | Cc1cc(C)cc(-c2c(O)nc3cc(Cl)c(C(=O)Nc4cc(Cl)ncn4)cc3c2OCCC2CCCCN2)c1 (stereo unspecified)
1.8 | 33.3 | 87.2 | Cc1cc(C)cc(-c2c(O)nc3cc(Cl)c(C(=O)Nc4ccnc(C)n4)cc3c2OCCC2CCCCN2)c1 (stereo unspecified)
2.9 | 21.5 | 521 | Cc1cc(C)cc(-c2c(O)nc3cc(Cl)c(C(=O)Nc4cc(C)ns4)cc3c2OCCC2CCCCN2)c1 (stereo unspecified)
 |  | > 1280 | CCN(CC)C(=O)c1cc2c(OCCC3CCCCN3)c(-c3cc(C)cc(C)c3)c(O)nc2cc1Cl (stereo unspecified)
110 | 591 | > 1280 | Cc1cc(C)cc(-c2c(O)nc3cc(Cl)c(C(=O)NCc4ccc5c(c4)OCO5)cc3c2OCCC2CCCCN2)c1 (stereo unspecified)
3.6 | 19 | 1260 | Cc1cc(C)cc(-c2c(O)nc3cc(Cl)c(C(=O)Nc4ccccn4)cc3c2OCCC2CCCCN2)c1 (stereo unspecified)
7 | 16 | 2200 | Cc1cc(C)cc(-c2c(O)nc3cc(Cl)c(C(=O)Nc4cnccn4)cc3c2OCCC2CCCCN2)c1 (stereo unspecified)
32 | 130 | > 1280 | Cc1cc(C)cc(-c2c(O)nc3cc(Cl)c(C(=O)Nc4cccnc4)cc3c2OCCC2CCCCN2)c1 (stereo unspecified)
0.8 | 5.9 | 23.9 | Cc1cc(C)cc(-c2c(O)nc3cc(Cl)c(C(=O)Nc4cnsn4)cc3c2OCC[C@@H]2CCCCN2)c1
15 | 250 |  | Cc1cc(C)cc(-c2c(O)nc3cc(Cl)c(C(=O)Nc4ccnc(C5CC5)n4)cc3c2OCCC2CCCCN2)c1 (stereo unspecified)
290 | > 3200 | > 1280 | Cc1cc(C)cc(-c2c(O)nc3cc(Cl)c(C(=O)Nc4ncccn4)cc3c2OCCC2CCCCN2)c1 (stereo unspecified)
0.9 | 5 | 96.5 | Cc1cc(C)cc(-c2c(O)nc3cc(Cl)c(C(=O)Nc4ccncn4)cc3c2OCC[C@@H]2CCCCN2)c1
320 | 775 | > 1280 | Cc1cc(C)cc(-c2c(O)nc3cc(Cl)c(C(=O)Nc4nc[nH]n4)cc3c2OCCC2CCCCN2)c1 (stereo unspecified)
